# Counter-ions that a name gives are not always drawn.
# Key:
# Crohn's patients = details: transient, baseline by week 8; cited from earlier work
# [1] = Stability of pharmaceutical formulations; format: physicochemical; details: for Purity (%) at week n = 4: 4 weeks
# Method: The samples were sonicated to achieve clear solutions having the following properties: Osmolality (mOsm/kg): 310 (Na), 314 (HCl); pH: 7.00 (Na), 7.05 (HCl). 0.5 mL of the stock solutions were diluted to 1 mL with 20% DMSO in water & injected for purity analysis by HPLC. The remaining stock solutions were then split into aliquots of 0.5 mL in HPLC vials, and stored at various conditions in duplicate. Samples were stored at 5 and 25° C., before being analysed by HPLC at 1, 2 and 4 weeks. Separate samples were stored at 40° C. and analysed at 4 weeks.
# [2] = Hydrolytic stability study; format: physicochemical; details: 1 mg/mL; for % Parent Remaining: DMSO/water (3:1)
# Method: Chemical stability of compounds of the invention was assessed in a mixture of DMSO and water (3:1) at a test compound concentration of 1 mg/mL.
# General HPLC Procedure • Agilent, Waters X-Select C18, 2.5 μm, 4.6×30 mm column, 4 min method, 5-95% MeCN/water (0.1% formic acid). Flow rate 2.5 mL/min. Column Oven Temperature 40° C. Detection 254 nm.
# Sample Preparation • A 1.0 mg sample of test compound was dissolved in 750 μL of DMSO. Water (250 μL) was added slowly, ensuring no precipitation occurred.
# Recording Stability • A 50 μL aliquot of the test solution was removed and analysed in duplicate by 5 μL HPLC injections. The peak area for the test compound was recorded following manual integration of the corresponding UV trace. • The test solution was heated to 60° C., with stirring, and 50 μL aliquots removed for HPLC analysis at 5 and 24 h timepoints.
# [3] = test system: Escherichia coli, WP2 uvrA; experiment: Bacterial reverse mutation screen (plate incorporation); details: for mutagenic effects (revertant numbers): presence and absence of S-9 mix
# [4] = test system: Salmonella typhimurium, strains TA1535, TA1537, TA98 and TA100; experiment: as above; details: for limit of solubility in the mutation test: all strains; for limit of solubility in the mutation test / mutagenic effects (revertant numbers): presence and absence of S-9 mix; for toxicity to the bacteria (mean colony count): at 500-5000 μg/plate in some strains
# [5] = test system: patients with severe Crohn's disease; details: over 8 weeks; cited from earlier work
# Jurkat cells = experiment: Cell cytotoxicity assay (assay r); format: cell-based, human; details: 24 hours
# Method: 1×10^5 Jurkat cells (immortalised human T lymphocytes) are added to the appropriate number of wells of a 96 well plate in 100 μL of media (RPMI supplemented with 10% foetal bovine serum). 1 μL of DMSO control (final concentration 1.0% v/v) or test compound (final concentration 20, 5 or 1 μg/mL) is added to the wells and incubated at 37° C., 5% CO2. After 24 hours, the plate is centrifuged at 1200 rpm for 3 minutes and the supernatant discarded. Cells are then resuspended in 150 μL (final concentration 7.5 μg/mL) of propidium iodide (PI) in PBS and incubated at 37° C., 5% CO2 for 15 minutes. After 15 minutes, cells are analysed by flow cytometry (BD accuri) using the FL3 window. The % viability is calculated as the % of cells that are PI negative in the test wells normalised to the DMSO control.
# LPS-stimulated rats = experiment: Endotoxin-induced uveitis in rats (assay vi); format: in vivo, rat; details: rats treated with intravitreal endotoxin LPS
# Method: Male, Lewis rats (6-8 weeks old, Charles River UK Limited) are housed in cages of 3 at 19-21° C. with a 12 h light/dark cycle (07:00/19:00) and fed a standard diet of rodent chow and water ad libitum. Non-fasted rats are weighed, individually identified on the tail with a permanent marker, and receive a single intravitreal administration into the right vitreous humor (5 μL dose volume) of 100 ng/animal of LPS (Escherichia coli 0111:B4 prepared in PBS, Sigma Aldrich, UK) using a 32-gauge needle. Untreated rats are injected with PBS. Test compound or vehicle (4% polyoxyl 40 stearate, 4% mannitol in PBS (pH 7.4)) are administered by the topical route onto the right eye (10 μL) of animals 1 hour prior to LPS, at the time of LPS administration, and 1, 2 and 4 hours post LPS administration. Before administration, the solution to be administered is sonicated to ensure a clear solution. 6 hours after LPS dosing, animals are euthanized by overdose with pentobarbitone (via cardiac puncture) Immediately after euthanasia, 10 μL of aqueous humor is collected from the right eye of the rats by puncture of the anterior chamber using a 32 gauge needle under a surgical microscope. The aqueous humor is diluted in 20 μL of PBS and total cell counts are measured immediately using a Countess automated cell counter (Invitrogen). […]
# [6] = test system: eyes of albino New Zealand White rabbits; details: Phase 1, one treatment day, 0.1 and 1.0 mg/mL
# non-mutant kinases = experiment: KinomeScan selectivity scores; format: binding; details: for KinomeScan Selectivity Score S(10): kinases with % Ctrl <10 / kinases tested; for KinomeScan Selectivity Score S(1): kinases with % Ctrl <1 / kinases tested; for kinase selectivity compared to the Reference Compound: KINOMEscan selectivity scores
# From the text: These assays may be conducted by DiscoverX (formerly Ambit; San Diego, Calif.).
# [7] = test system: rheumatoid arthritis patients; details: cited from earlier work
# [8] = 60° C., 24 h timepoint (1429-1450 min)
smiles,measurement,setting,value
Cc1ccc(-n2nc(C(C)(C)C)cc2NC(=O)Nc2ccc(OCCN3CCOCC3)c3ccccc23)cc1 [BIRB796],clinical benefit (C-reactive protein levels),Crohn's patients,improvement in C-reactive protein levels
"COc1cc(Nc2cc(Oc3ccc(NC(=O)Nc4cc(C(C)(C)C)cc(NS(C)(=O)=O)c4OC)c4ccccc34)ccn2)ccc1C(=O)O.Cl [Example 1, hydrochloride salt, 4-((4-((4-(3-(5-(tert-butyl)-2-methoxy-3-(methylsulfonamido)phenyl)ureido)naphthalen-1-yl)oxy)pyridin-2-yl)amino)-2-methoxybenzoic acid, hydrochloride salt]",Purity (%) at week n = 2,"[1]; 1 mg/mL buffered solution stored at 5° C., 2 weeks, duplicate samples, hydrochloride salt",98.0%
same,Purity (%) at week n = 4,"[1]; 1 mg/mL buffered solution stored at 5° C., duplicate samples, hydrochloride salt",98.0%
same,Purity (%) at week n = 1,"[1]; 1 mg/mL buffered solution stored at 25° C., 1 week, duplicate samples",98.0%
"COc1cc(Nc2cc(Oc3ccc(NC(=O)Nc4cc(C(C)(C)C)cc(NS(C)(=O)=O)c4OC)c4ccccc34)ccn2)ccc1P(C)(=O)O [Example 44, (4-((4-((4-(3-(5-(tert-Butyl)-2-methoxy-3-(methylsulfonamido)phenyl)ureido)naphthalen-1-yl)oxy)pyridin-2-yl)amino)-2-methoxyphenyl)(methyl)phosphinic acid]",% Parent Remaining,[2]; [8],98%
same,% Parent Remaining,[2]; time 0 min,100%
same,toxicity to the bacteria (mean colony count),"[3]; 5000 μg/plate, absence of S-9 mix",reduction in the mean colony count
same,mutagenic effects (revertant numbers),[3],absence of any mutagenic effects
same,limit of solubility in the mutation test,[4],5000 μg/plate
same,toxicity to the bacteria (mean colony count),[4],reduction in the mean colony count
same,mutagenic effects (revertant numbers),[4],absence of any mutagenic effects
"COc1cc(Nc2cc(Oc3ccc(NC(=O)Nc4cc(C(C)(C)C)cc(NS(C)(=O)=O)c4OC)c4ccccc34)ccn2)ccc1C(=O)O [Example 1, sodium salt]",Purity (%) at week n = 4,"[1]; 1 mg/mL buffered solution stored at 40° C., duplicate samples",76.0%
"C#Cc1cc(Nc2nccc(Oc3ccc(NC(=O)Nc4cc(C(C)C)nn4-c4ccc(C)cc4)c4ccccc34)n2)cc(C(=O)NCCN2CCOCC2)c1 [Reference Compound B, 3-ethynyl-5-((4-((4-(3-(3-isopropyl-1-(p-tolyl)-1H-pyrazol-5-yl)ureido)naphthalen-1-yl)oxy)pyrimidin-2-yl)amino)-N-(2-morpholinoethyl)benzamide, reference compound]",decomposition (hydrolytic stability),"[2]; DMSO and water (3:1), 60° C., 5 and 24 h",underwent substantial decomposition
same,% Parent Remaining,"[2]; 60° C., 5 h timepoint (297-317 min)",79%
same,% Parent Remaining,[2]; [8],18%
same,% Parent Remaining,[2]; time 0 min,100%
C/C(=N\N=C(N)N)c1cc(NC(=O)CCCCCCCCC(=O)Nc2cc(/C(C)=N/N=C(N)N)cc(/C(C)=N/N=C(N)N)c2)cc(/C(C)=N/N=C(N)N)c1.Cl.Cl.Cl.Cl [CNI-1493],clinical score,[5],significant improvement in clinical score
"COc1cc(Nc2cc(Oc3ccc(NC(=O)Nc4cc(C(C)(C)C)cc(NS(C)(=O)=O)c4OC)c4ccccc34)ccn2)ccc1C(=O)NC[C@@H]1O[C@H](CO)[C@@H](O)[C@H](O)[C@H]1O [17(co), 4-((4-((4-(3-(5-(tert-Butyl)-2-methoxy-3-(methylsulfonamido)phenyl)ureido)naphthalen-1-yl)oxy)pyridin-2-yl)amino)-2-methoxy-N-(((2S,3R,4R,5S,6R)-3,4,5-trihydroxy-6-(hydroxymethyl)tetrahydro-2H-pyran-2-yl)methyl)benzamide]",% Viability at 1 μg/mL,Jurkat cells,74.3%
"COc1cc(Nc2cc(Oc3ccc(NC(=O)Nc4cc(C(C)(C)C)cc(NS(C)(=O)=O)c4OC)c4ccccc34)ccn2)ccc1C(=O)O [Example 1, 4-((4-((4-(3-(5-(tert-Butyl)-2-methoxy-3-(methylsulfonamido)phenyl)ureido)naphthalen-1-yl)oxy)pyridin-2-yl)amino)-2-methoxybenzoic acid]",stability in solution,"[1]; 1 mg/mL Na and HCl salts, 10 mM pH 7.2 phosphate buffer, 4.5% mannitol, 3% polyoxyl 40 stearate, 5° C., up to 4 weeks",stable
same,mutagenic effects (revertant numbers),[3],absence of any mutagenic effects
same,cellular infiltration (cell counts) in the eyes,LPS-stimulated rats,significantly and dose-dependently reduced
same,cytokine IL-1β levels in anterior and posterior segments of the eyes,LPS-stimulated rats,significantly and dose-dependently reduced
same,ocular reactions versus vehicle controls,[6],"no differences in the frequency, severity and incidence"
same,limit of solubility in the mutation test,[4],1500 μg/plate
same,toxicity to the bacteria (mean colony count),[4],reduction in the mean colony count
same,mutagenic effects (revertant numbers),[4],absence of any mutagenic effects
"COc1cc(Nc2cc(Oc3ccc(NC(=O)Nc4cc(C(C)(C)C)cc(NS(C)(=O)=O)c4OC)c4ccccc34)ccn2)cc(OC)c1C(=O)NCCOCCOCCOP(=O)(O)O [Example 47, 2-(2-(2-(4-((4-((4-(3-(5-(tert-butyl)-2-methoxy-3-(methylsulfonamido)phenyl)ureido)-naphthalen-1-yl)oxy)pyridin-2-yl)amino)-2,6-dimethoxybenzamido)ethoxy)ethoxy)ethyl dihydrogen phosphate]",% Parent Remaining,[2]; [8],89%
same,% Parent Remaining,[2]; time 0 min,100%
same,KinomeScan Selectivity Score S(10),non-mutant kinases; 50 nM,0.042
same,KinomeScan Selectivity Score S(1),non-mutant kinases; 500 nM,0.074
same,kinase selectivity compared to the Reference Compound,non-mutant kinases,improved selectivities
COc1cc(Nc2ncc(F)c(Nc3ccc4c(n3)N(COP(=O)(O)O)C(=O)C(C)(C)O4)n2)cc(OC)c1OC [Fostamatinib],clinical outcome and serum IL-6 and MMP-3,[7],improved clinical outcome and reduced serum levels of IL-6 and MMP-3
"COc1cc(Nc2cc(Oc3ccc(NC(=O)Nc4cc(C(C)(C)C)cc(NS(C)(=O)=O)c4OC)c4ccccc34)ccn2)cc(OC)c1C(=O)NCCOCCOCCO [Example 36, 4-((4-((4-(3-(5-(tert-Butyl)-2-methoxy-3-(methylsulfonamido)phenyl)ureido)naphthalen-1-yl)oxy)pyridin-2-yl)amino)-N-(2-(2-(2-hydroxyethoxy)ethoxy)ethyl)-2,6-dimethoxybenzamide]",KinomeScan Selectivity Score S(1),non-mutant kinases; 50 nM,0.002
same,KinomeScan Selectivity Score S(10),non-mutant kinases; 50 nM,0.050
same,KinomeScan Selectivity Score S(1),non-mutant kinases; 500 nM,0.079
same,kinase selectivity compared to the Reference Compound,non-mutant kinases,improved selectivities
